US12655171B2, “Compounds for activating invariant natural killer T-cells and methods of use in eliminating inflammatory senescent cells” (Deciduous Therapeutics, Inc., priority 2021, dated 2026)
Entries after “also recorded” stand apart in the source; their conditions may differ.

Columns and labels:
IFNγ = assay: Diet induced obesity (HFD) mouse model: serum IFNγ (ELISA); assay type: in vivo, C57BL/6J mice; conditions: for secretion of IFNγ in the HFD mouse model: between two and twenty hours post-treatment
Procedure: (§1) Senescence is a feature of pre-adipocytes in obese individuals. To study the efficacy of the molecules described herein in decreasing senescence in fat, a diet induced obesity high fat diet (HFD) mouse model was used. 22-week-old HFD mice were injected with α-GalCer as a control and compared with the compounds of the present disclosure. The blood and spleen (or adipose tissue) were collected to measure iNKT activation and expansion, respectively. Cells in the eWAT (adipose tissue) were also collected and measured for % senescent cells. HFD mice were compared to non-HFD (normal diet) mice.
(§2) 22-week-old C57BL/6J mice on a chow or high-fat diet (HFD) were injected (I.P) with […] of α-GalCer, compound DCD-101 or compound DCD-154. Molecules were either dissolved in DMSO at a 5 mg/mL stock solution, or formulated into liposomes through thin-film rehydration, then extrusion through 200 nm filters. Liposome-based formulations were constructed using soy phosphatidylcholine, cholesterol, and DCD or α-GalCer in a 2:1:0.15 ratio. Two or twenty hours post-injection, blood was collected from the tail to measure the level of IFNγ using ELISA. Four days post-injection, mice were sacrificed to collect eWAT or spleen. Spleen was used to measure the number of iNKT cells, and eWAT was used to measure the number of iNKT cells and senescent cells using flow cytometry. iNKT cells were identified in the digested adipose tissue by gating live cells and mouse CD1d-α-GalCer tetramer+ cells. Senescent cells were measured withing the processes adipose tissue by selecting mCD45− cells, and C12FDG^HIGH cells.

mouse iTCR = assay: In vitro activation of mouse iTCR, DN3.2 iNKT hybridoma with drug-loaded BWSTIM cells, IL-2 secretion; assay type: cell-based; conditions: for IL-2 secretion compared to α-GalCer: drug loaded at 0.01 μg/mL, 48 hours co-culture, FIG. 2
Procedure: In order to determine the mouse iTCR activation potential induced by the compounds described herein, a mouse iNKT hybridoma cell line (DN3.2) from the La Jolla Institute for Allergy and Immunology were used as the iNKT. The BWS147 cell line (BWSTIM) with CD80 and CD1d acted as the antigen-presenting cell.
(§3) DCD molecules or α-GalCer were both dissolved in DMSO at a 5 mg/mL stock solution. BWSTIM cells were loaded with DCD molecules or α-GalCer of varying concentrations for 4 hours at 37° C. at a concentration of 20 k cells/well in 200 μL of media in a u-bottom 96 well dish. BWSTIM cells were washed 2× with media, then incubated with DN3.2 cells at a concentration of 80 k cells/well in a u-bottom 96 well dish. Cells were co-cultured for 48 hours. Media was collected and IL-2 was measured using the CisBio HTRF ELISA detection kit.
(§4) A jurkat cell line (JiNKT) was transfected with the human iTCR, and GFP under the NFkB promoter. A BWS147 cell line (BWSTIM) was also transfected with CD80 and CD1d to act as the antigen-presenting cell. A mouse iNKT hybridoma cell line (DN3.2) was also used as the iNKT. […]
as §3, with “GVK” for “DCD”, “compounds” for “DCD molecules or α-GalCer of varying concentrations”

primary human iNKT cells = assay: Cytokine secretion of primary human iNKT cells co-cultured with drug-loaded BWSTIM cells; assay type: cell-based; conditions: BWSTIM loaded with 10 μg/mL; for IFNγ secretion compared to the no-compound control: FIG. 3A; for IL6 secretion compared to the no-compound control: FIG. 3B; for TNFα secretion compared to the no-compound control: FIG. 3C
Procedure: In order to determine the activation profile induced by the compounds described herein, primary human iNKT cells were co-cultured with drug-loaded BWSTIM cells.
Day 0: PBMCs were isolated from human blood using the STEMCELL TECHNOLOGIES™ SepMate™ PBMC isolation system. iNKT cells were then selected using the Miltenyi NKT magnetic cell separation kit.
Day 2: DCD molecules or α-GalCer were both dissolved in DMSO at a 5 mg/mL stock solution. BWSTIM cells were fixed with mitomycin C, then loaded with 10 μg/mL of DCD molecules or α-GalCer for 4 hours at 37° C. at a concentration of 20 k cells/well in 200 μL of media in a u-bottom 96 well dish. Cells were co-cultured with 80 k 6B11+ selected primary human iNKT cells.
D4: Media was collected. Cytokines were measured using the Satorious 4Plex kit on the iQue3 cytometer.
GVK molecules or α-GalCer were both dissolved in DMSO at a 5 mg/mL stock solution. BWSTIM cells were loaded with compounds for 4 hours at 37° C. at a concentration of 20 k cells/well in 200 μL of media in a u-bottom 96 well dish. Cells were co-cultured with 100 k 6B11+ selected primary human iNKT cells. Media was collected 2 days later. Cytokines were measured using the Satorious 4Plex kit on the iQue3 cytometer.

senescent cells in eWAT = assay: Diet induced obesity (HFD) mouse model: senescent cells (C12FDG+) in eWAT; assay type: in vivo, C57BL/6J mice; conditions: HFD mice, four days post-injection; FIG. 5E
Procedure: as §1, §2

iNKT cells [1] = assay: Diet induced obesity (HFD) mouse model: iNKT cell expansion in spleen or eWAT; assay type: in vivo, C57BL/6J mice; conditions: HFD mice, I.P. 2 g, four days post-injection
Procedure: as §1, §2

human iTCR = assay: In vitro activation of human iTCR through Jurkat reporter cell line (JiNKT, GFP under NFkB promoter) with drug-loaded BWSTIM cells; assay type: cell-based; conditions: BWSTIM loaded 4 hours, co-culture with JiNKT 18 to 24 hours; FIG. 1
Procedure: In order to determine the human iTCR activation potential induced by the compounds described herein, a jurkat cell line (JiNKT) was transfected with the human iTCR, and GFP under the NFkB promoter (cell line licensed from the Medical University of Vienna). A BWS147 cell line (BWSTIM) was also transfected with CD80 and CD1d to act as the antigen-presenting cell.
(§5) DCD molecules or α-GalCer were both dissolved in DMSO at a 5 mg/mL stock solution. BWSTIM cells were loaded with DCD molecules or α-GalCer at varying concentrations for 4 hours at 37° C. at a concentration of 20 k cells/well in 200 μL of media in a u-bottom 96 well dish. BWSTIM cells were washed 2× with media, then incubated with JiNKT cells at a concentration of 80 k cells/well in a u-bottom 96 well dish. Cells were co-cultured for 18 to 24 hours. The percentage of cells expressing high levels of GFP was measured through flow cytometry (after gating out the mCD45+ BWSTIM cells).
as §4
as §5, with “GVK” for “DCD”, “compounds” for “DCD molecules or α-GalCer at varying concentrations”, “for” for “for 18 to”, “cytometry. 1 μg/mL of molecule GVK1a, GVK1b, GVK1c, or GVK1f was incubated with BWSTIM+JiNKT, and compared to α-GalCer.” for “cytometry (after gating out the mCD45+ BWSTIM cells).”

iNKT cells [2] = assay: In vivo iNKT cell expansion in spleen of C57BL/6J mice (flow cytometry); conditions: 2 μg I.P.; four days post-injection; FIG. 4B
Procedure: (§6) In order to determine the expansion induced by the molecules described herein, molecules were injected into C57BL/6J mice. Serum IFNγ levels and the expansion of iNKT cells within splenocytes was measured 4 days post-IP injection.
(§7) Eight weeks old C57BL/6J mice were injected (I.P.) with 2 μg of α-GalCer or DCD molecules. Molecules were either dissolved in DMSO at a 5 mg/mL stock solution, or formulated into liposomes through thin-film rehydration, then extrusion through 200 nm filters. Liposome-based formulations were constructed using soy phosphatidylcholine, cholesterol, and DCD or α-GalCer in a 2:1:0.15 ratio. Twenty hours post-injection, blood was collected from the tail to measure the level of serum IFNγ using an ELISA kit from Biolegend. Four days post-injection, the mice were sacrificed and the spleenocytes were isolated. The percentage of iNKT cells within the spleens was measured using flow cytometry, selecting for live cells and mouse CD1d-α-GalCer tetramer+ cells.

serum IFNγ = assay: In vivo serum IFNγ (ELISA) in C57BL/6J mice; conditions: 2 μg I.P.; twenty hours post-injection; FIG. 4A
Procedure: as §6, §7

CCCCCCCCCCCCCC[C@@H](O)[C@@H](O)[C@H](COC1OC(CO)C(O)C(O)C1O)NC(=O)CCCCCCCCCCC12CC(F)(C1)C2 (some centres unmarked) [DCD-101]
secretion of IFNγ in the HFD mouse model (IFNγ): induce secretion of IFNγ | levels of serum IFNγ in the HFD model (IFNγ; two hours post injection, FIG. 5C): significantly increased levels of IFNγ | IL-2 secretion compared to α-GalCer (mouse iTCR): greater IL-2 secretion than α-GalCer | IL-2 secretion (mouse iTCR; ranking among tested compounds, at the lowest concentrations): highest IL-2 secretion at the lowest concentrations | IFNγ secretion compared to the no-compound control (primary human iNKT cells): significantly higher levels | IL6 secretion compared to the no-compound control (primary human iNKT cells): significantly higher levels | TNFα secretion compared to the no-compound control (primary human iNKT cells): significantly higher levels | accumulation of senescent cells (C12FDG+) in eWAT (senescent cells in eWAT): effective in decreasing the accumulation of senescent cells in eWAT; also recorded: Senescent cell reduction in adipose tissue is observed | expansion of immune (iNKT) cells in HFD mouse spleen (iNKT cells [1]; FIG. 5A): caused expansion of immune cells in HFD mouse spleen; also recorded: expand iNKT cells | EC50 of the dose response based on percentage GFP+ cells, compared to α-GalCer (human iTCR): lower EC50s compared to α-GalCer

CCCCCCCCCCCCCC[C@@H](O)[C@@H](O)[C@H](COC1OC(CO)C(O)C(O)C1O)NC(=O)CCCCCCCCCCC12CCC(CC1)CC2 (some centres unmarked) [DCD-102]
IL-2 secretion compared to α-GalCer (mouse iTCR): greater IL-2 secretion than α-GalCer

CCCCCCCCCCCCCC[C@@H](O)[C@@H](O)[C@H](COC1OC(CO)C(O)C(O)C1O)NC(=O)CCCCCCCCCCC1CC1C (some centres unmarked) [DCD-106]
IL-2 secretion compared to α-GalCer (mouse iTCR): greater IL-2 secretion than α-GalCer | IFNγ secretion compared to the no-compound control (primary human iNKT cells): significantly higher levels | IL6 secretion compared to the no-compound control (primary human iNKT cells): significantly higher levels | TNFα secretion compared to the no-compound control (primary human iNKT cells): significantly higher levels | EC50 of the dose response based on percentage GFP+ cells, compared to α-GalCer (human iTCR): lower EC50s compared to α-GalCer

CCCCCCCCCCCCCC[C@@H](O)[C@@H](O)[C@H](COC1OC(CO)C(O)C(O)C1O)NC(=O)CCCCCCCCCCCCCCCCCCCCCCCC1COC1 (some centres unmarked) [DCD-153]
average iNKT cell isolated from the spleen compared to α-GalCer (iNKT cells [2]): higher than mice treated with α-GalCer | average serum IFNγ compared to α-GalCer (serum IFNγ): higher than the average serum IFNγ of C57BL/6J mice treated with α-GalCer | EC50 of the dose response based on percentage GFP+ cells, compared to α-GalCer (human iTCR): lower EC50s compared to α-GalCer

CCCCCCCCCCCCCC[C@@H](O)[C@@H](O)[C@H](COC1OC(CO)C(O)C(O)C1O)NC(=O)CCCCCCCCCCC12CC(CCCCCCCCCCCCC)(C1)C2 (some centres unmarked) [DCD-154]
average iNKT cell isolated from the spleen compared to α-GalCer (iNKT cells [2]): higher than mice treated with α-GalCer | secretion of IFNγ in the HFD mouse model (IFNγ): induce secretion of IFNγ | levels of IFNγ in the HFD model (IFNγ; twenty hours post injection, FIG. 5D): significantly increased levels of IFNγ | average serum IFNγ compared to α-GalCer (serum IFNγ): higher than the average serum IFNγ of C57BL/6J mice treated with α-GalCer | accumulation of senescent cells (C12FDG+) in eWAT (senescent cells in eWAT): effective in decreasing the accumulation of senescent cells in eWAT; also recorded: Senescent cell reduction in adipose tissue is observed | expansion of immune (iNKT) cells in HFD mouse eWAT (iNKT cells [1]; percent iNKT cells of live cells, FIG. 5B): caused expansion of immune cells in HFD mouse eWAT; also recorded: expand iNKT cells

CCCCCCCCCCCCCC[C@@H](O)[C@@H](O)[C@H](COC1OC(CO)C(O)C(O)C1O)NC(=O)CCCCCCCCCCCCCCCCCCCCCCCCC12CC(F)(C1)C2 (some centres unmarked) [DCD-156]
average serum IFNγ compared to α-GalCer (serum IFNγ): higher than the average serum IFNγ of C57BL/6J mice treated with α-GalCer | EC50 of the dose response based on percentage GFP+ cells, compared to α-GalCer (human iTCR): lower EC50s compared to α-GalCer

CCCCCCCCCCCCCCCCC[Si](C)(C)CCCCCCCC(=O)N[C@@H](COC1OC(CO)C(O)C(O)C1O)[C@H](O)[C@H](O)CCCCCCCCCCCCCC (some centres unmarked) [DCD-157]
average serum IFNγ compared to α-GalCer (serum IFNγ): higher than the average serum IFNγ of C57BL/6J mice treated with α-GalCer | EC50 of the dose response based on percentage GFP+ cells, compared to α-GalCer (human iTCR): lower EC50s compared to α-GalCer
